Results taken from US20070032513A1, “Quinazoline derivatives” (priority 2003, published 2007).

Assays:
[1] = molecular target: T1, EGFR tyrosine kinase (Homo sapiens, UniProt P00533); assay: Protein tyrosine kinase phosphorylation assay, Test (a); format: biochemical; details: recombinant intracellular fragment, ATP at Km concentration; read-out: IC50 (nM) Test (a) (Inhibition of EGFR tyrosine kinase protein phosphorylation)
T1 construct: Recombinant intracellular fragments of EGFR, erbB2 and erbB4; made in house; host or cells: baculovirus/Sf21 insect cells (cleared lysate used)
Description: This test measures the ability of a test compound to inhibit the phosphorylation of a tyrosine containing polypeptide substrate by EGFR, erbB2 or erbB4 tyrosine kinase enzyme.
Recombinant intracellular fragments of EGFR, erbB2 and erbB4 (accession numbers X00588, X03363 and L07868 respectively) were cloned and expressed in the baculovirus/Sf21 system. Lysates were prepared from these cells by treatment with ice-cold lysis buffer (20 mM N-2-hydroxyethylpiperizine-N′-2-ethanesulfonic acid (HEPES) pH7.5, 150 mM NaCl, 10% glycerol, 1% Triton X-100, 1.5 mM MgCl2, 1 mM ethylene glycol-bis(β-aminoethyl ether) N′,N′,N′,N′-tetraacetic acid (EGTA), plus protease inhibitors and then cleared by centrifugation.
Constitutive kinase activity of these recombinant proteins was determined by their ability to phosphorylate a synthetic peptide (made up of a random co-polymer of Glutamic Acid, Alanine and Tyrosine in the ratio of 6:3:1). Specifically, Maxisorb™ 96-well immunoplates were coated with synthetic peptide (0.2 μg of peptide in a 200 μl phosphate buffered saline (PBS) solution and incubated at 4° C. overnight). Plates were washed in 50 mM HEPES pH 7.4 at room temperature to remove any excess unbound synthetic peptide. EGFR or erbB2 activities were assessed by incubation in peptide coated plates for 20 minutes at room temperature in 100 mM HEPES pH 7.4 at room temperature, adenosine trisphosphate (ATP) at Km concentration for the respective enzyme, 10 mM MnCl2, 0.1 mM Na3VO4, 0.2 mM DL-dithiothreitol (DIT), 0.1% Triton X-100 with test compound in DMSO (final concentration of 2.5%). Reactions were terminated by the removal of the liquid components of the assay followed by washing of the plates with PBS-T (phosphate buffered saline with 0.5% Tween 20).
The immobilised phospho-peptide product of the reaction was detected by immunological methods. Firstly, plates were incubated for 90 minutes at room temperature with anti-phosphotyrosine primary antibodies that were raised in the mouse (4G10 from Upstate Biotechnology). Following extensive washing, plates were treated with Horseradish Peroxidase (HRP) conjugated sheep anti-mouse secondary antibody (NXA931 from Amersham) for 60 minutes at room temperature. After further washing, HRP activity in each well of the plate was measured colorimetrically using 22′-Azino-di-[3-ethylbenzthiazoline sulfonate (6)] diammonium salt crystals (ABTS™ from Roche) as a substrate.
Quantification of colour development and thus enzyme activity was achieved by the measurement of absorbance at 405 nm on a Molecular Devices ThermoMax microplate reader. Kinase inhibition for a given compound was expressed as an IC50 value. […] The range of phosphorylation was calculated from the positive (vehicle plus ATP) and negative (vehicle minus ATP) control values.

[2] = test system: KB cells; assay: EGFR driven KB cell proliferation assay, Test (b); format: cell-based; details: Homo sapiens, 96 h, EGF 1 ng/ml, incubation for 4 days, MTT
Description: This assay measures the ability of a test compound to inhibit the proliferation of KB cells (human naso-pharangeal carcinoma obtained from the American Type Culture Collection (ATCC)).
KB cells were cultured in Dulbecco's modified Eagle's medium (DMEM) containing 10% foetal calf serum, 2 mM glutamine and non-essential amino acids at 37° C. in a 7.5% CO2 air incubator. Cells were harvested from the stock flasks using Trypsin/ethylaminediaminetetraacetic acid EDTA). Cell density was measured using a haemocytometer and viability was calculated using trypan blue solution before being seeded at a density of 1.25×10^3 cells per well of a 96 well plate in DMEM containing 2.5% charcoal stripped serum, 1 mM glutamine and non-essential amino acids at 37° C. in 7.5% CO2 and allowed to settle for 4 hours.
Following adhesion to the plate, the cells are treated with or without EGF (final concentration of 1 ng/ml) and with or without compound at a range of concentrations in dimethylsulfoxide (DMSO) (0.1% final) before incubation for 4 days. Following the incubation period, cell numbers were determined by addition of 50 μl of 3-(4,5-Dimethylthiazol-2-yl)-2,5-diphenyltetrazolium bromide (MTT) (stock 5 mg/ml) for 2 hours. MIT solution was then tipped off, the plate gently tapped dry and the cells dissolved upon the addition of 100 μl of DMSO.
Absorbance of the solubilised cells was read at 540 nm using a Molecular Devices ThermoMax microplate reader. Inhibition of proliferation was expressed as an IC50 value. […] The range of proliferation was calculated from the positive (vehicle plus EGF) and negative (vehicle minus EGF) control values.

T1 sequence (P00533 669-1210 limits assumed): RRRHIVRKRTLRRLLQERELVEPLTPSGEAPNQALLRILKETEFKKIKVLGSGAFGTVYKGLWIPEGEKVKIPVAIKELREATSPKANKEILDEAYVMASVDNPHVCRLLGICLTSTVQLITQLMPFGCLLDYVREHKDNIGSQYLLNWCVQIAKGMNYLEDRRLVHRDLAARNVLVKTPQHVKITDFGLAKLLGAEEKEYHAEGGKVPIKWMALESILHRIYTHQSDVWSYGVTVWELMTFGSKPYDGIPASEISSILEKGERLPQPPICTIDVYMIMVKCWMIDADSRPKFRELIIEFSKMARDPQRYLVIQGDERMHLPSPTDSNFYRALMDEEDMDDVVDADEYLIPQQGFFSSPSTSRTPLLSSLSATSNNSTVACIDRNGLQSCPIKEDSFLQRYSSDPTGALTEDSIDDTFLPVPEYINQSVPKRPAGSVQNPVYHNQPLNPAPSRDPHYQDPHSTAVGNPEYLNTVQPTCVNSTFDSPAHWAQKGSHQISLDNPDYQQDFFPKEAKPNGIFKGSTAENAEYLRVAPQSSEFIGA

## COc1cc2c(Nc3cccc(Cl)c3F)ncnc2cc1OC1CN(C(=O)[C@@H](C)O)C1 [Example 4, (2R)-1-[3-({4-[3-Chloro-2-fluoroanilino]-6-methoxyquinazolin-7-yl}oxy)azetidin-1-yl]-1-oxopropan-2-ol]
[1]
  IC50: 8 nM
[2]
  IC50: 48 nM

## COc1cc2c(Nc3cccc(Cl)c3F)ncnc2cc1OC1CCN(C(=O)C2CCC(=O)N2)CC1 (stereo not drawn) [6[5], 5-{[4-({4-[3-chloro-2-fluoroanilino]-6-methoxyquinazolin-7-yl}oxy)piperidin-1-yl]carbonyl}pyrrolidin-2-one]
[1]
  IC50: 41 nM
[2]
  IC50: 397 nM

## COc1cc2c(Nc3cccc(Cl)c3F)ncnc2cc1OC1CN(C(=O)[C@H](C)O)C1 [Example 3]
[1]
  IC50: 17 nM
[2]
  IC50: 71 nM

## COCC(=O)N1CC[C@@H](Oc2cc3ncnc(Nc4cccc(Cl)c4F)c3cc2OC)C1 [Example 5, N-(3-Chloro-2-fluorophenyl)-6-methoxy-7-{[(3R)-1-(methoxyacetyl)pyrrolidin-3-yl]oxy}quinazolin-4-amine]
[1]
  IC50: 217 nM
other
  melting point: 73 to 77 °C
[2]
  IC50: 119 nM
